Data reported in US9452986B2, “6-heteroaryloxy- or 6-aryloxy-quinoline-2-carboxamides and method of use” (AbbVie Inc., priority 2014, dated 2016).

biological target: recombinant human Nav1.7 (Homo sapiens (Human), UniProt Q15858); assay: FRET-based membrane potential assay, recombinant human sodium channel Nav1.7; type: cell-based; settings: HEK293 cells stably expressing recombinant human Nav1.7; veratridine + scorpion venom depolarization; read-out: FRET-Membrane Potential Nav1.7 IC50
In short: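 Channel activation used veratridine at its EC80, set by a dilution curve each experiment, together with Leiurus scorpion venom, added 3 min after compound. Membrane-potential ratio signals from FLIPR Tetra in HEPES-buffered HBSS were fitted to a four-parameter Hill equation for percent inhibition and IC50.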

Sequence of recombinant human Nav1.7 (Q15858 whole entry): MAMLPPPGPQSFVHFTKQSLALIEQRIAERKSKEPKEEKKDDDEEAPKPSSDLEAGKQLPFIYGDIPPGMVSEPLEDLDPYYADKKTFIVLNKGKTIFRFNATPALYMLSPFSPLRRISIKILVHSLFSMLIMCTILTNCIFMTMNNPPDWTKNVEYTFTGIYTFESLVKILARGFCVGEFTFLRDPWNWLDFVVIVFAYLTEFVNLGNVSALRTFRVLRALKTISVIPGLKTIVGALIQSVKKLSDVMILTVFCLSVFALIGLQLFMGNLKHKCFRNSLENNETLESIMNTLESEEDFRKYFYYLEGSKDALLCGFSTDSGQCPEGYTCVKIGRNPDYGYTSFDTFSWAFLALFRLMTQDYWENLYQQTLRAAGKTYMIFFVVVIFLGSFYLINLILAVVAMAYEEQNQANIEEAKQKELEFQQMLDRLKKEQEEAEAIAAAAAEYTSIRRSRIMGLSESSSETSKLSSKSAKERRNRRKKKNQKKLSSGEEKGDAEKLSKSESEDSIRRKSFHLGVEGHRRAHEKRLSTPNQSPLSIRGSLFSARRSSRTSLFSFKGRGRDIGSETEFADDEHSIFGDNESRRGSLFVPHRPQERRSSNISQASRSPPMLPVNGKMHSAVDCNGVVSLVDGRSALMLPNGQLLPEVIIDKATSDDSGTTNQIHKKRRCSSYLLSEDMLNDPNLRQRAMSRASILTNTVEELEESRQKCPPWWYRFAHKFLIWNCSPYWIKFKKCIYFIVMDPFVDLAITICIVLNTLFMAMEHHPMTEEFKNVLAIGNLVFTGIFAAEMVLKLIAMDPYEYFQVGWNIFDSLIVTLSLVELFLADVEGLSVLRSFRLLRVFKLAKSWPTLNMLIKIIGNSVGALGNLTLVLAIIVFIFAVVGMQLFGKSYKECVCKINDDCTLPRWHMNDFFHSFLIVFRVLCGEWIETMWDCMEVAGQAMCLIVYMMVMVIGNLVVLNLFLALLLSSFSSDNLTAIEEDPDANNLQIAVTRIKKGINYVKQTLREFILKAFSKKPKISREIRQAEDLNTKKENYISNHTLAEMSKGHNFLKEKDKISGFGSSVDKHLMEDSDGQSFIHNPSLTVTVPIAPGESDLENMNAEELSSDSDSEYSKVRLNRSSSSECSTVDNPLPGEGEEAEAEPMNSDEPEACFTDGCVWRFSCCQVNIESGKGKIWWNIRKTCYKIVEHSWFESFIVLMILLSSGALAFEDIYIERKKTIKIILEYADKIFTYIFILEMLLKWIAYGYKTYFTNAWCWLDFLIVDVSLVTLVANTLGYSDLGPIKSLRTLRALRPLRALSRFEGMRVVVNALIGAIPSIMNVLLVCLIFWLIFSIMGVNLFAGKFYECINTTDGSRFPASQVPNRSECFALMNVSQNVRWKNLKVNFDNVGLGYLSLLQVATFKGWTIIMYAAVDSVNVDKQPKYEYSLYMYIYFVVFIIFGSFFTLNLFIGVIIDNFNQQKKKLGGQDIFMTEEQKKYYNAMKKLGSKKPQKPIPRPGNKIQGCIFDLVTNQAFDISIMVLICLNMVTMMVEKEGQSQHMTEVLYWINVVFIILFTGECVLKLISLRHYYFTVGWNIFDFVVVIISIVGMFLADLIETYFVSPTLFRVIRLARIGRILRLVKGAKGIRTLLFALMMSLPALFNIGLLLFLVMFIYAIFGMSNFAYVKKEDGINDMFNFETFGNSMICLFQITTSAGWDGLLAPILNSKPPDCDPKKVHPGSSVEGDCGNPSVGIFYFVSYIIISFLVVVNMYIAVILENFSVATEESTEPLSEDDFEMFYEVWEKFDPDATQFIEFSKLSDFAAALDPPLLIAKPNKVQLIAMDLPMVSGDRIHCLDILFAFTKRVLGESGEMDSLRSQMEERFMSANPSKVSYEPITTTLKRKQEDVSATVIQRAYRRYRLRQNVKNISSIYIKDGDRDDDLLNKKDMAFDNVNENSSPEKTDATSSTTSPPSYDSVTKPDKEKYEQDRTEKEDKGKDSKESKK

Compared with `O=C(NC1CS(=O)(=O)C1)c1ccc2cc(Oc3ccc(C(F)(F)F)cn3)ccc2n1` [Example 504, N-(1,1-dioxidothietan-3-yl)-6-{[5-(trifluoromethyl)pyridin-2-yl]oxy}quinoline-2-carboxamide], `O=C(N[C@@H]1CCOC1=O)c1ccc2cc(Oc3ccc(C(F)(F)F)cn3)ccc2n1` [Example 530, N-[(3R)-2-oxotetrahydrofuran-3-yl]-6-{[5-(trifluoromethyl)pyridin-2-yl]oxy}quinoline-2-carboxamide] is 1.5-fold higher in IC50: 0.593 µM for the first, 0.911 µM for the second. The first is the more potent here.

Going from `CC(=O)C1CN(C(=O)c2ccc3cc(Oc4ccc(C(F)(F)F)cn4)ccc3n2)C1` [Example 506, 1-{1-[(6-{[5-(trifluoromethyl)pyridin-2-yl]oxy}quinolin-2-yl)carbonyl]azetidin-3-yl}ethanone] to `O=C(c1ccc2cc(Oc3ccc(C(F)(F)F)cn3)ccc2n1)N1CC(F)C1` [Example 507, (3-fluoroazetidin-1-yl)(6-{[5-(trifluoromethyl)pyridin-2-yl]oxy}quinolin-2-yl)methanone], the IC50 rises from 0.781 µM to 2.18 µM (2.8-fold). The first is the more potent here.

`O=C(c1ccc2cc(Oc3ccc(C(F)(F)F)cn3)ccc2n1)N1CC(F)(F)C1` [Example 508, (3,3-difluoroazetidin-1-yl)(6-{[5-(trifluoromethyl)pyridin-2-yl]oxy}quinolin-2-yl)methanone] and `O=C(c1ccc2cc(Oc3ccc(C(F)(F)F)cn3)ccc2n1)N1CC2(CCOC2)C1` [Example 532, 6-oxa-2-azaspiro[3.4]oct-2-yl(6-{[5-(trifluoromethyl)pyridin-2-yl]oxy}quinolin-2-yl)methanone] are within 1.5-fold of each other in IC50: 3.65 µM for the first, 2.77 µM for the second.

`CN(C)C(=O)[C@@H]1C[C@@H](F)CN1C(=O)c1ccc2cc(Oc3ccc(C(F)(F)F)cn3)ccc2n1` [Example 509, (4R)-4-fluoro-N,N-dimethyl-1-[(6-{[5-(trifluoromethyl)pyridin-2-yl]oxy}quinolin-2-yl)carbonyl]-L-prolinamide] and `O=C(c1ccc2cc(Oc3ccc(C(F)(F)F)cn3)ccc2n1)N1CC2(CCCOC2)C1` [Example 533, 6-oxa-2-azaspiro[3.5]non-2-yl(6-{[5-(trifluoromethyl)pyridin-2-yl]oxy}quinolin-2-yl)methanone] are within 1.5-fold of each other in IC50: 2.64 µM for the first, 2.4 µM for the second.

Compared with `O=C(c1ccc2cc(Oc3ccc(C(F)(F)F)cn3)ccc2n1)N1CCN(Cc2ncco2)CC1` [Example 510, [4-(1,3-oxazol-2-ylmethyl)piperazin-1-yl](6-{[5-(trifluoromethyl)pyridin-2-yl]oxy}quinolin-2-yl)methanone], `Cc1nc(CN2CCN(C(=O)c3ccc4cc(Oc5ccc(C(F)(F)F)cn5)ccc4n3)CC2)co1` [Example 531, {4-[(2-methyl-1,3-oxazol-4-yl)methyl]piperazin-1-yl}(6-{[5-(trifluoromethyl)pyridin-2-yl]oxy}quinolin-2-yl)methanone] is 2-fold lower in IC50: 7.29 µM for the first, 3.57 µM for the second.

First: O=C(NC1CCC(F)(F)CC1)c1ccc2cc(Oc3ccc(C(F)(F)F)nc3)ccc2n1 [Example 511, N-(4,4-difluorocyclohexyl)-6-{[6-(trifluoromethyl)pyridin-3-yl]oxy}quinoline-2-carboxamide]
Second: O=C(NC1CCS(=O)(=O)CC1)c1ccc2cc(Oc3ccc(C(F)(F)F)nc3)ccc2n1 [Example 535, N-(1,1-dioxidotetrahydro-2H-thiopyran-4-yl)-6-{[6-(trifluoromethyl)pyridin-3-yl]oxy}quinoline-2-carboxamide]
The IC50 of the first is lower: 1.98 µM for the first, over 20 µM for the second.

Going from `COCCNC(=O)CN(C)C(=O)c1ccc2cc(Oc3ccc(C(F)(F)F)nc3)ccc2n1` [Example 514, N-{2-[(2-methoxyethyl)amino]-2-oxoethyl}-N-methyl-6-{[6-(trifluoromethyl)pyridin-3-yl]oxy}quinoline-2-carboxamide] to `CC(C)NC(=O)CN(C)C(=O)c1ccc2cc(Oc3ccc(C(F)(F)F)nc3)ccc2n1` [Example 525, N-[2-(isopropylamino)-2-oxoethyl]-N-methyl-6-{[6-(trifluoromethyl)pyridin-3-yl]oxy}quinoline-2-carboxamide], the IC50 falls from 12.9 µM to 6.65 µM (1.9-fold).

Going from `O=C(NCCC(=O)N1CCOCC1)c1ccc2cc(Oc3ccc(C(F)(F)F)nc3)ccc2n1` [Example 515, N-[3-(morpholin-4-yl)-3-oxopropyl]-6-{[6-(trifluoromethyl)pyridin-3-yl]oxy}quinoline-2-carboxamide] to `O=C(NCCC(=O)N1CCCC1)c1ccc2cc(Oc3ccc(C(F)(F)F)nc3)ccc2n1` [Example 516, N-[3-oxo-3-(pyrrolidin-1-yl)propyl]-6-{[6-(trifluoromethyl)pyridin-3-yl]oxy}quinoline-2-carboxamide], the IC50 falls from 4.25 µM to 2 µM (2.1-fold).

Compared with `CCN(CC)C(=O)CNC(=O)c1ccc2cc(Oc3ccc(C(F)(F)F)nc3)ccc2n1` [Example 517, N-[2-(diethylamino)-2-oxoethyl]-6-{[6-(trifluoromethyl)pyridin-3-yl]oxy}quinoline-2-carboxamide], `CCN(CC)C(=O)CCNC(=O)c1ccc2cc(Oc3ccc(C(F)(F)F)nc3)ccc2n1` [Example 524, N-[3-(diethylamino)-3-oxopropyl]-6-{[6-(trifluoromethyl)pyridin-3-yl]oxy}quinoline-2-carboxamide] is 2.9-fold higher in IC50: 0.37 µM for the first, 1.08 µM for the second.

`O=C(NCC(=O)N1CCCCC1)c1ccc2cc(Oc3ccc(C(F)(F)F)nc3)ccc2n1` [Example 518, N-[2-oxo-2-(piperidin-1-yl)ethyl]-6-{[6-(trifluoromethyl)pyridin-3-yl]oxy}quinoline-2-carboxamide] and `O=C(NCCC(=O)N1CCCCC1)c1ccc2cc(Oc3ccc(C(F)(F)F)nc3)ccc2n1` [Example 520, N-[3-oxo-3-(piperidin-1-yl)propyl]-6-{[6-(trifluoromethyl)pyridin-3-yl]oxy}quinoline-2-carboxamide] are within 1.5-fold of each other in IC50: 0.998 µM for the first, 0.945 µM for the second.

Compared with `CN1CC(NC(=O)c2ccc3cc(Oc4ccc(C(F)(F)F)nc4)ccc3n2)CC1=O` (centres unmarked) [Example 519, N-(1-methyl-5-oxopyrrolidin-3-yl)-6-{[6-(trifluoromethyl)pyridin-3-yl]oxy}quinoline-2-carboxamide], `CCN1CC(NC(=O)c2ccc3cc(Oc4ccc(C(F)(F)F)nc4)ccc3n2)CC1=O` (centres unmarked) [Example 523, N-(1-ethyl-5-oxopyrrolidin-3-yl)-6-{[6-(trifluoromethyl)pyridin-3-yl]oxy}quinoline-2-carboxamide] is 3.3-fold lower in IC50: 1.16 µM for the first, 0.356 µM for the second.

Compared with `O=C(c1ccc2cc(Oc3ccc(C(F)(F)F)nc3)ccc2n1)N1CCC(N2CCOCC2)CC1` [Example 526, [4-(morpholin-4-yl)piperidin-1-yl](6-{[6-(trifluoromethyl)pyridin-3-yl]oxy}quinolin-2-yl)methanone], `O=C(c1ccc2cc(Oc3ccc(C(F)(F)F)nc3)ccc2n1)N1CC=CC1` [Example 539, 2,5-dihydro-1H-pyrrol-1-yl(6-{[6-(trifluoromethyl)pyridin-3-yl]oxy}quinolin-2-yl)methanone] is higher in IC50: 3.09 µM for the first, over 20 µM for the second. The first is the more potent here.

`N[C@@H]1[C@H]2CN(C(=O)c3ccc4cc(Oc5ccc(C(F)(F)F)nc5)ccc4n3)C[C@@H]12` [Example 528, meso-[(1R,5S,6s)-6-amino-3-azabicyclo[3.1.0]hex-3-yl](6-{[6-(trifluoromethyl)pyridin-3-yl]oxy}quinolin-2-yl)methanone] and `CS(=O)(=O)C1CN(C(=O)c2ccc3cc(Oc4ccc(C(F)(F)F)nc4)ccc3n2)C1` [Example 534, [3-(methylsulfonyl)azetidin-1-yl](6-{[6-(trifluoromethyl)pyridin-3-yl]oxy}quinolin-2-yl)methanone] are within 1.5-fold of each other in IC50: 2.92 µM for the first, 1.97 µM for the second.

Compared with `O=C(NC1COC1)c1ccc2cc(Oc3ccc(C(F)(F)F)nc3)ccc2n1` [Example 536, N-(oxetan-3-yl)-6-{[6-(trifluoromethyl)pyridin-3-yl]oxy}quinoline-2-carboxamide], `O=C(N[C@H]1CS(=O)(=O)C[C@H]1O)c1ccc2cc(Oc3ccc(C(F)(F)F)nc3)ccc2n1` [Example 537, N-[(3R,4S)-4-hydroxy-1,1-dioxidotetrahydrothiophen-3-yl]-6-{[6-(trifluoromethyl)pyridin-3-yl]oxy}quinoline-2-carboxamide] is 2.4-fold higher in IC50: 1.15 µM for the first, 2.71 µM for the second.

First: O=C(N[C@@H]1CS(=O)(=O)C[C@H]1O)c1ccc2cc(Oc3ccc(C(F)(F)F)nc3)ccc2n1 [Example 538, N-[(3S,4S)-4-hydroxy-1,1-dioxidotetrahydrothiophen-3-yl]-6-{[6-(trifluoromethyl)pyridin-3-yl]oxy}quinoline-2-carboxamide]
Second: COC(C)(C)CNC(=O)c1ccc2cc(Oc3ccc(C(F)(F)F)cn3)ccc2n1 [Example 541, N-(2-methoxy-2-methylpropyl)-6-{[5-(trifluoromethyl)pyridin-2-yl]oxy}quinoline-2-carboxamide]
The IC50 of the first is 2.7-fold higher: 3.16 µM for the first, 1.19 µM for the second.

same assay, conditions: read-out: FRET-Membrane Potential Nav1.7 IC50

In order of rising IC50:
1. O=C(NCC(=O)N1CCCC1)c1ccc2cc(Oc3ccc(C(F)(F)F)nc3)ccc2n1 [Example 513, N-[2-oxo-2-(pyrrolidin-1-yl)ethyl]-6-{[6-(trifluoromethyl)pyridin-3-yl]oxy}quinoline-2-carboxamide]  0.911 µM
2. O=C(c1ccc2cc(Oc3ccc(C(F)(F)F)cn3)ccc2n1)N1CCC(N2CC(F)(F)C2)CC1 [Example 540, [4-(3,3-difluoroazetidin-1-yl)piperidin-1-yl](6-{[5-(trifluoromethyl)pyridin-2-yl]oxy}quinolin-2-yl)methanone]  4.03 µM
3. CNC(=O)c1ccc2cc(Oc3ccc(C(F)(F)F)cn3)ccc2n1 [Example 527, N-methyl-6-{[5-(trifluoromethyl)pyridin-2-yl]oxy}quinoline-2-carboxamide]  5.91 µM
4. CN(CC(=O)NC1CC1)C(=O)c1ccc2cc(Oc3ccc(C(F)(F)F)nc3)ccc2n1 [Example 522, N-[2-(cyclopropylamino)-2-oxoethyl]-N-methyl-6-{[6-(trifluoromethyl)pyridin-3-yl]oxy}quinoline-2-carboxamide]  10.7 µM
5. O=C(c1ccc2cc(Oc3ccc(C(F)F)cn3)ccc2n1)N1CCN2CC(F)(F)C[C@H]2C1 [Example 542, [(8aS)-7,7-difluorohexahydropyrrolo[1,2-a]pyrazin-2(1H)-yl](6-{[5-(difluoromethyl)pyridin-2-yl]oxy}quinolin-2-yl)methanone]  14.5 µM
